Measurements as given in ChEMBL document CHEMBL4043168, “The design and SAR of a novel series of 2-aminopyridine based LRRK2 inhibitors” (Bioorg Med Chem Lett, 2017).

Tests used:
[1] = target: Phosphatidylinositol 3-kinase catalytic subunit type 3 (Homo sapiens) (UniProt Q8NEB9); experiment: Inhibition of PIK3C3 ATP binding site (TEDGGKYPVIFKHGDDLR) in human PBMC at 0.1 uM
[2] = target: T1, Tyrosine-protein kinase JAK3 (Homo sapiens) (UniProt P52333); experiment: Inhibition of JAK3 domain2 conserved Lys1 (YDPLGDNTGALVAVKQLQHSGPDQQR) in human PBMC at 0.1 uM
T1 sequence (whole entry): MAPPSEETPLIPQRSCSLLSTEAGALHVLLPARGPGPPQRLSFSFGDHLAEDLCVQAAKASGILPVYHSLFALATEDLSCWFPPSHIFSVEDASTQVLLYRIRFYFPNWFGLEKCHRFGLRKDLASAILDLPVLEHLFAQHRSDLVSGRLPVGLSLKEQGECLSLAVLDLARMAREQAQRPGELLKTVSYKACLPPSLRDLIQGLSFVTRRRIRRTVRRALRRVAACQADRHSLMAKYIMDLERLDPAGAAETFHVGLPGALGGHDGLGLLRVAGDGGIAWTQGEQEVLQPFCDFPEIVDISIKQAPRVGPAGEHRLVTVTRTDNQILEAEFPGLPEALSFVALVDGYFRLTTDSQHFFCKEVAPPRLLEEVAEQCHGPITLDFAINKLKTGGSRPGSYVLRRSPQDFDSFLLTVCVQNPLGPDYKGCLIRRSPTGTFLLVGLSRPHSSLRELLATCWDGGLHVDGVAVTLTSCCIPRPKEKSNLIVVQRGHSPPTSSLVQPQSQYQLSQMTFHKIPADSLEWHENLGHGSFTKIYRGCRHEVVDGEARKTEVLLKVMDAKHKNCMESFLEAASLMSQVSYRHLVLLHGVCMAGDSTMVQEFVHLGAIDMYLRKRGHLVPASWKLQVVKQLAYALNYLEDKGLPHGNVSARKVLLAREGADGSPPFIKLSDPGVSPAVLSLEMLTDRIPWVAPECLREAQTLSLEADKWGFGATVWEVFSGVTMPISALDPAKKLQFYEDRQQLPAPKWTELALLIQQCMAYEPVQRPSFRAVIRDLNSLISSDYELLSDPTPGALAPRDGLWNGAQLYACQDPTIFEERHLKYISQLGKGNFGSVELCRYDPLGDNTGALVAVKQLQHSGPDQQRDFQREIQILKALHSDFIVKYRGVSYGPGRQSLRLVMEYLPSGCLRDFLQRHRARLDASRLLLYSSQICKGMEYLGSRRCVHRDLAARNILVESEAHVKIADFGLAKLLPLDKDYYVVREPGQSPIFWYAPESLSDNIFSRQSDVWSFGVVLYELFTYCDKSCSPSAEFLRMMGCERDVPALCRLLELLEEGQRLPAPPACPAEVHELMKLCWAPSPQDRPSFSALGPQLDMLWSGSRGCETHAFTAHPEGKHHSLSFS

[3] = target: Inhibitor of nuclear factor kappa-B kinase subunit beta (Homo sapiens) (UniProt O14920); experiment: Inhibition of IKKb conserved Lys2 (DLKPENIVLQQGEQR) in human PBMC at 0.1 uM
[4] = target: T2, Serine/threonine-protein kinase 4 (Homo sapiens) (UniProt Q13043); experiment: Inhibition of MST1 conserved Lys1 ETGQIVAIKQVPVESDLQEIIK in human PBMC at 1 uM
T2 sequence (whole entry): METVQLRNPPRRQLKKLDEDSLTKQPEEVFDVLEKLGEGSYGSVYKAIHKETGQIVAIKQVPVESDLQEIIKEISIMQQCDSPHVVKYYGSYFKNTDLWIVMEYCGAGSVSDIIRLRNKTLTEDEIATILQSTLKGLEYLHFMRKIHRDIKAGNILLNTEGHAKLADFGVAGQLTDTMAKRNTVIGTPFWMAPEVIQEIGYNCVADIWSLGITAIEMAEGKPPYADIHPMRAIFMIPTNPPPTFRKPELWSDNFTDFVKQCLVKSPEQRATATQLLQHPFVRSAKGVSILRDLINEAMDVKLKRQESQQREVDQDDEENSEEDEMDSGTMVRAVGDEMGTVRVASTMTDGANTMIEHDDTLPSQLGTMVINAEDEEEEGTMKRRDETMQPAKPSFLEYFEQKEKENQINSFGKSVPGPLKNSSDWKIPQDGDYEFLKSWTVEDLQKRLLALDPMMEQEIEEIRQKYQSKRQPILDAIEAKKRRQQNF

[5] = target: Calcium/calmodulin-dependent protein kinase type II subunit delta (Homo sapiens) (UniProt Q13557); experiment: Inhibition of CaMK2d labeling at conserved Lys2 (DLKPENLLLASK) in human PBMC at 0.1 uM
[6] = target: Myosin light chain kinase, smooth muscle (Homo sapiens) (UniProt Q15746); experiment: Inhibition of smMLCK conserved Lys1 (VWAGKFFK) in human PBMC at 1 uM
Sequence of Myosin light chain kinase, smooth muscle (Homo sapiens) (Q15746 whole entry): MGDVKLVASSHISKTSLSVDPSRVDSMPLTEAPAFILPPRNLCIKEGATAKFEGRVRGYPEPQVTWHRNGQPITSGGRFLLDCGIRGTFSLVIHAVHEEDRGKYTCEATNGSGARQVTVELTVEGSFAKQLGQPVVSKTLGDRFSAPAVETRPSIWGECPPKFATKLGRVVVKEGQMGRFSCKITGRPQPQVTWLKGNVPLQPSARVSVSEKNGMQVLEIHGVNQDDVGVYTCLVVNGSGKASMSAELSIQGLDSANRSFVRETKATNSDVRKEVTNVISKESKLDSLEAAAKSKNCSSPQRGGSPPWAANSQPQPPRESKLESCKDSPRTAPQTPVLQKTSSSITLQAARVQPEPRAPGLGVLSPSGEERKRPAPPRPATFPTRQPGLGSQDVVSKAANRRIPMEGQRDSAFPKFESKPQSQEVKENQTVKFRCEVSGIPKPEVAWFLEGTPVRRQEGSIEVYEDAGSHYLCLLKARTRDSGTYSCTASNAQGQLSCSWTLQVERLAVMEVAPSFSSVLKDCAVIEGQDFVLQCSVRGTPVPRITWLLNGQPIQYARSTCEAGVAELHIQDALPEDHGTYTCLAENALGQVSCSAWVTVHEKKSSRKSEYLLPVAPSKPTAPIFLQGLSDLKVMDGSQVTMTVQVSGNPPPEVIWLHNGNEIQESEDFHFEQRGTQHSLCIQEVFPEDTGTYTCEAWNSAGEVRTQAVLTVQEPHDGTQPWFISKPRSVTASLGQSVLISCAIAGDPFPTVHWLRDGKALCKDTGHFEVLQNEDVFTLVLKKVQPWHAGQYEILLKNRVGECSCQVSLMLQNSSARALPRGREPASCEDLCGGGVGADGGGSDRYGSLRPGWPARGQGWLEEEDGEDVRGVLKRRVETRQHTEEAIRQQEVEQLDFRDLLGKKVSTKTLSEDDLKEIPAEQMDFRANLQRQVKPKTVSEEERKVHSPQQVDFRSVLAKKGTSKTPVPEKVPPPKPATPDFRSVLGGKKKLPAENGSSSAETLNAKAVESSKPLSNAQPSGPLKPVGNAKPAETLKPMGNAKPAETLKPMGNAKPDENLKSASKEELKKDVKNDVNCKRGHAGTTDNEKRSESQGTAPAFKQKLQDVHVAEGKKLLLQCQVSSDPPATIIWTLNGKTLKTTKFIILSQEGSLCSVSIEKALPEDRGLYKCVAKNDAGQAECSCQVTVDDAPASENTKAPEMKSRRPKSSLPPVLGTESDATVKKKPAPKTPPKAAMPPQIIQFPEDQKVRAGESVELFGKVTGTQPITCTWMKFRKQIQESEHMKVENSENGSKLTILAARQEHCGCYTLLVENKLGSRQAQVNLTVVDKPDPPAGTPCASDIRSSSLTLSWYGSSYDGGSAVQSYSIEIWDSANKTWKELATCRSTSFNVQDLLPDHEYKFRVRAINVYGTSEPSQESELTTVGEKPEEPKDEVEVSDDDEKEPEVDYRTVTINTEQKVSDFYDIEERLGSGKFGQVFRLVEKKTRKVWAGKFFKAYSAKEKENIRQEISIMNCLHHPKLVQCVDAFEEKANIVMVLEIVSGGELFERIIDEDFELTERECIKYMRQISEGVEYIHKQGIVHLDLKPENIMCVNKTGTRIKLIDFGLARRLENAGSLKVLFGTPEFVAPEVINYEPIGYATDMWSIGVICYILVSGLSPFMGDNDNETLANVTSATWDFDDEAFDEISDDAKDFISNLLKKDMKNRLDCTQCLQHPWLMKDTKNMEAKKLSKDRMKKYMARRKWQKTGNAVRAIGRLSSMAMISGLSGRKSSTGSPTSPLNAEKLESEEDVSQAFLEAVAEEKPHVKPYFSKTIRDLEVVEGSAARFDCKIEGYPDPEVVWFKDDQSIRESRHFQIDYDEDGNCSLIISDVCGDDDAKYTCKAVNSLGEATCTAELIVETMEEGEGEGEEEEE

Sequence of Inhibitor of nuclear factor kappa-B kinase subunit beta (Homo sapiens) (O14920 whole entry): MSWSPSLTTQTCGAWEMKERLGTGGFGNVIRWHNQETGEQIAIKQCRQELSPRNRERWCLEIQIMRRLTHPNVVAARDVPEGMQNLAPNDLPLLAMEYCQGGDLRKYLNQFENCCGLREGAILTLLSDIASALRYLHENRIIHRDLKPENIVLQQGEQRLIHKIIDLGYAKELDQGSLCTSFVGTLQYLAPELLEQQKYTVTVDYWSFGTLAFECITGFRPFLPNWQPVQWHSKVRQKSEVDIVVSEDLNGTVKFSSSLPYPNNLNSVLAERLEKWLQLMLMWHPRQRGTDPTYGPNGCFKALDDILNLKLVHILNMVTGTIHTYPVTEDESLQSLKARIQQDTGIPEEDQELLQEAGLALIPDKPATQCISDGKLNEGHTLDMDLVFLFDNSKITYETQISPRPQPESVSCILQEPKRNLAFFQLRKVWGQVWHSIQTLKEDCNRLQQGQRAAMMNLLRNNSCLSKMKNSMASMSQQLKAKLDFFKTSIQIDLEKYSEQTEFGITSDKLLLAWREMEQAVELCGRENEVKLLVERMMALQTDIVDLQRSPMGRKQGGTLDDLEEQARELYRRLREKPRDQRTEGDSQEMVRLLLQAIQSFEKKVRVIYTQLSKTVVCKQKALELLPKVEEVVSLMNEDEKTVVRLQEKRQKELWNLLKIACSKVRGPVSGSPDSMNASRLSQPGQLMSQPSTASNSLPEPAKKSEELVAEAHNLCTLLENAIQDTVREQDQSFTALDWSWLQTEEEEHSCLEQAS
Sequence of Calcium/calmodulin-dependent protein kinase type II subunit delta (Homo sapiens) (Q13557 whole entry): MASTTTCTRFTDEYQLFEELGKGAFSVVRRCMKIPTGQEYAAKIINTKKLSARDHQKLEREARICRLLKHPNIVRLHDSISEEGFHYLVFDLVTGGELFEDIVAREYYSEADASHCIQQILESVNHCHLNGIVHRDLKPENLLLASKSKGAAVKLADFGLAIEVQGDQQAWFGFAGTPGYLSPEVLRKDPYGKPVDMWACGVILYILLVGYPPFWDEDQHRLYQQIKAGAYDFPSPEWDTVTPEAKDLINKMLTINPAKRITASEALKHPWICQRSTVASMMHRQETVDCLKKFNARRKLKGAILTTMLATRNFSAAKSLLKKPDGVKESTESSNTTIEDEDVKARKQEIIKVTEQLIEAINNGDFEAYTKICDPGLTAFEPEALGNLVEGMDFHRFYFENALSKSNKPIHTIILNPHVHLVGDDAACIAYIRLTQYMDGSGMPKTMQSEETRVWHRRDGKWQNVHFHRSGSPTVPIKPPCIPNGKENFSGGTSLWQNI
Sequence of Phosphatidylinositol 3-kinase catalytic subunit type 3 (Homo sapiens) (Q8NEB9 whole entry, the tested form may be a part): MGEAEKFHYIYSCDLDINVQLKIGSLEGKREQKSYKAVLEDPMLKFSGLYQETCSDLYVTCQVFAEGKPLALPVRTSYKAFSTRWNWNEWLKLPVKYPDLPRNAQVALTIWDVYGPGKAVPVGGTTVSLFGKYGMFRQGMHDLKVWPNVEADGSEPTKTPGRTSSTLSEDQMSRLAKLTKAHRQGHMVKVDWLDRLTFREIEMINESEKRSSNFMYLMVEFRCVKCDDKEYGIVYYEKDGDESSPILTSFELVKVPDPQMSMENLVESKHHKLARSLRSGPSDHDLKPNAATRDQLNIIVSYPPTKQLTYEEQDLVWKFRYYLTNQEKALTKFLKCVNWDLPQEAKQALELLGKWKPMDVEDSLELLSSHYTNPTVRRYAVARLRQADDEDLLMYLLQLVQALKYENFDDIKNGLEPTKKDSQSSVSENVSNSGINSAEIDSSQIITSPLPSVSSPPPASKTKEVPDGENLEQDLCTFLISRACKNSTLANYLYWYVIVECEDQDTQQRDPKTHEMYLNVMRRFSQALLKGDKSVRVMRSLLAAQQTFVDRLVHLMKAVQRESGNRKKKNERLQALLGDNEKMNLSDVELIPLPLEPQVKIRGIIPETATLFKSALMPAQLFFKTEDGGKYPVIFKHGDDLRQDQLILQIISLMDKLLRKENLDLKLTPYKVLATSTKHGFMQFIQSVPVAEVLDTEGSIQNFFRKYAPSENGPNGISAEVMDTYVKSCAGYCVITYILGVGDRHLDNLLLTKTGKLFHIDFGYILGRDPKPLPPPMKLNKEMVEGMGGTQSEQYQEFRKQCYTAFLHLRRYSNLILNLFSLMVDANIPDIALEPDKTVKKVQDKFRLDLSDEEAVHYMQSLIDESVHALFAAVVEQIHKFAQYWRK

## CC(C)n1cc(-c2cc(-c3ccc(CN4CCOCC4)cc3)cnc2N)nn1
[1]
  inhibition: 14.1%
[2]
  inhibition: -8%
[3]
  inhibition: 1.5%
[4]
  inhibition: -9.5%
[5]
  inhibition: -7.5%
[6]
  inhibition: 26%
